The experiment concerns the target KDM5B (Homo sapiens (Human), UniProt Q9UGL1). Briefly: KDM5B TR-FRET Enzyme Activity Assay. Type of experiment: biochemical. The following applies: LANCE TR-FRET; 5 nM full-length recombinant KDM5B; ten point titration 100000 nM to 5.08 nM. Summed up:
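Full-length KDM5B from Sf21 cells (5 nM) was preincubated 30 min with compound in HEPES pH 7.3 buffer with ascorbate and 2 μM Fe(II). Reaction with 500 nM biotinylated H3K4Me3 peptide and 500 nM α-ketoglutarate ran 60 min. Product was detected by TR-FRET (Eu-anti-H3K4Me1-2/streptavidin-Dylight 650, 665/615 ratio); IC50 came from a 4-parameter fit.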
(In general: TR-FRET usually uses a lanthanide donor and a delayed reading to cut background.)

As usually defined, the IC50 is the point on the concentration scale where inhibition reaches its midpoint.

KDM5B, sequence (Q9UGL1 whole entry): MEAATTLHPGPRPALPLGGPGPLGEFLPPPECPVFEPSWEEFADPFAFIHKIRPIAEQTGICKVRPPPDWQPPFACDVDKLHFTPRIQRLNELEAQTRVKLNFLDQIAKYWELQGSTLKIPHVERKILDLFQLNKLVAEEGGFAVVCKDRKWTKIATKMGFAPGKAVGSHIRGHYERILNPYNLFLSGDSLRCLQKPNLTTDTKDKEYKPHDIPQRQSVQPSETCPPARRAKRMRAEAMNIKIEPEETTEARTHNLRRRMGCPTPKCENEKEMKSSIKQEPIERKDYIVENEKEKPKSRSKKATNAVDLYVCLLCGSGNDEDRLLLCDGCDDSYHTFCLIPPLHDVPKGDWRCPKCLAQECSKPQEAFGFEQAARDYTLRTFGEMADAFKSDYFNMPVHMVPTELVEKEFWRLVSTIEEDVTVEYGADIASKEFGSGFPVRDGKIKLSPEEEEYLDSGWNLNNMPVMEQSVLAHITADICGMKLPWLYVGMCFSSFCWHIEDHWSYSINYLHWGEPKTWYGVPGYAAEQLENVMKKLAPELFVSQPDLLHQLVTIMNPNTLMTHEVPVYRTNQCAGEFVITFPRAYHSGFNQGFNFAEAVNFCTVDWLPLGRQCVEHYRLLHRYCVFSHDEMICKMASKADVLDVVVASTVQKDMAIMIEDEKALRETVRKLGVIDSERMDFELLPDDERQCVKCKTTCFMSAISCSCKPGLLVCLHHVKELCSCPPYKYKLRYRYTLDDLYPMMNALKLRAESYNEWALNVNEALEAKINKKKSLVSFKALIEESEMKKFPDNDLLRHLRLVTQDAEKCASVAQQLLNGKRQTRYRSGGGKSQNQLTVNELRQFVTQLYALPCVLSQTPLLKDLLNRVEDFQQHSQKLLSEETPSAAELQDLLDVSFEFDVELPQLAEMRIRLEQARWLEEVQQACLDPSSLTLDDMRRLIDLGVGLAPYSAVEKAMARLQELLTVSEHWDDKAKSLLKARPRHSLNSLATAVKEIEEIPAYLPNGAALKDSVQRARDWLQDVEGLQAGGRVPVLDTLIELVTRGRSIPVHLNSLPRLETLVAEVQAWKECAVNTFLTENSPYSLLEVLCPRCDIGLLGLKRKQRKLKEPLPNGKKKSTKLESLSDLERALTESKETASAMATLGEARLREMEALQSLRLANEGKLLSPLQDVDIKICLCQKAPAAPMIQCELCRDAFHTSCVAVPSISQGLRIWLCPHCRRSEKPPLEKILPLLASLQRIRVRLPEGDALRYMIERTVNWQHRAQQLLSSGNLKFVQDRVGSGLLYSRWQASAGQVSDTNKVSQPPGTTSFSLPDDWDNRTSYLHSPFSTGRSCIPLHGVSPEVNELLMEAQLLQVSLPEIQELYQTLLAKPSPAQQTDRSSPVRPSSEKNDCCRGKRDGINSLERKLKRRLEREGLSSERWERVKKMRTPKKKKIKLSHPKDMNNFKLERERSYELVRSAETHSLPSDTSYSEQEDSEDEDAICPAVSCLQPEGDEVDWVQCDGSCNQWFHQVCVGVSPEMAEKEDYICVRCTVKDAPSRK

Regarding `CC(C)c1c(-c2ccc3c(cnn3C)c2)[nH]c2ncnn2c1=O` [Example 11-78, 6-(1-methylethyl)-5-(1-methyl-1H-indazol-5-yl)[1,2,4]triazolo[1,5-a]pyrimidin-7(4H)-one], the IC50 was determined as 10.4 nM.

As for `COC(=O)c1ccc(-c2[nH]c3ncnn3c(=O)c2C(C)C)cc1` [Example 11-79, methyl 4-[6-(1-methylethyl)-7-oxo-4,7-dihydro[1,2,4]triazolo[1,5-a]pyrimidin-5-yl]benzoate], the IC50 was 19.4 nM.

For `COC(=O)c1cccc(-c2[nH]c3ncnn3c(=O)c2C(C)C)c1` [Example 11-80, methyl 3-[6-(1-methylethyl)-7-oxo-4,7-dihydro[1,2,4]triazolo[1,5-a]pyrimidin-5-yl]benzoate], the IC50 is 34.2 nM.

Consider `CC(C)c1c(C2=CC(C)(C)OC(C)(C)C2)[nH]c2ncnn2c1=O` [Example 11-81, 6-(1-methylethyl)-5-(2,2,6,6-tetramethyl-3,6-dihydro-2H-pyran-4-yl)[1,2,4]triazolo[1,5-a]pyrimidin-7(4H)-one], for which the IC50 was 306 nM.

For the molecule `CC(C)c1c(-c2ccc(-n3cccn3)cc2)[nH]c2ncnn2c1=O` [Example 11-82, 6-(1-methylethyl)-5-[4-(1H-pyrazol-1-yl)phenyl][1,2,4]triazolo[1,5-a]pyrimidin-7(4H)-one], the IC50 was 8.78 nM.

Turning to `CC(C)c1c(-c2cccc(-n3cccn3)c2)[nH]c2ncnn2c1=O` [Example 11-83, 6-(1-methylethyl)-5-[3-(1H-pyrazol-1-yl)phenyl][1,2,4]triazolo[1,5-a]pyrimidin-7(4H)-one], the IC50 worked out at 21.2 nM.

With `CC(C)c1c(-c2ccc(C(F)(F)F)cc2)[nH]c2ncnn2c1=O` [Example 11-84, 6-(1-methylethyl)-5-[4-(trifluoromethyl)-phenyl][1,2,4]triazolo[1,5-a]pyrimidin-7(4H)-one], the IC50 came out at 67.2 nM.

Consider `CC(C)c1c(-c2cccc(C(F)(F)F)c2)[nH]c2ncnn2c1=O` [Example 11-85, 6-(1-methylethyl)-5-[3-(trifluoromethyl)phenyl] [1,2,4]triazolo[1,5-a]pyrimidin-7(4H)-one], for which the IC50 amounted to 41.2 nM.

Consider `CC(C)c1c(-c2ccc(C(=O)N(C)C)cc2)[nH]c2ncnn2c1=O` [Example 11-86, N,N-dimethyl-4-[6-(1-methylethyl)-7-oxo-4,7-dihydro[1,2,4]triazolo[1,5-a]pyrimidin-5-yl]benzamide], for which the IC50 was found to be 12.6 nM.

As to `CC(C)c1c(-c2cc(C(F)(F)F)nn2C)[nH]c2ncnn2c1=O` [Example 11-87, 6-(1-methylethyl)-5-[1-methyl-3-(trifluoromethyl)-1H-pyrazol-5-yl][1,2,4]triazolo[1,5-a]pyrimidin-7(4H)-one], the IC50 was determined as 1220 nM.

Turning to `CC(C)c1c(-c2ccc(-c3ccncc3)cc2)[nH]c2ncnn2c1=O` [Example 11-88, 6-(1-methylethyl)-5-(4-pyridin-4-ylphenyl)[1,2,4]triazolo[1,5-a]pyrimidin-7(4H)-one], the IC50 came to 8.57 nM.

As for `CC(C)c1c(-c2ccc3ncn(C4CC4)c3c2)[nH]c2ncnn2c1=O` [Example 11-89, 5-(1-cyclopropyl-1H-benzimidazol-6-yl)-6-(1-methylethyl)[1,2,4]triazolo[1,5-a]pyrimidin-7(4H)-one], the IC50 came to 21.3 nM.

`CC(C)c1c(-c2ccc(-c3nccn3C)cc2)[nH]c2ncnn2c1=O` [Example 11-90, 6-(1-methylethyl)-5-[4-(1-methyl-1H-imidazol-2-yl)phenyl][1,2,4]triazolo[1,5-a]pyrimidin-7(4H)-one]: the IC50 was determined as 7.26 nM.

As to `CC(C)c1c(-c2ccnn2Cc2ccccc2)[nH]c2ncnn2c1=O` [Example 11-91, 5-(1-benzyl-1H-pyrazol-5-yl)-6-(1-methylethyl)[1,2,4]triazolo[1,5-a]pyrimidin-7(4H)-one], the IC50 is 634 nM.

In the case of `COCC(C)(C)n1cc(-c2[nH]c3ncnn3c(=O)c2C(C)C)cn1` [Example 11-92, 5-[1-(2-methoxy-1,1-dimethylethyl)-1H-pyrazol-4-yl]-6-(1-methylethyl)[1,2,4]triazolo[1,5-a]pyrimidin-7(4H)-one], the IC50 came out at 5.29 nM.

Source of the values: US10975084B2, “KDM5 inhibitors” (Merck Sharp & Dohme Corp., priority 2016, dated 2021).
